# Measurements published in ChEMBL document CHEMBL4673209, “Discovery of a novel potent GPR40 full agonist” (Bioorg Med Chem Lett, 2018).
# pEC50, pIC50: −log10 of the molar value. The source made the active and inactive calls. No cut-off for these calls is given here.
# Assays:
# Rattus norvegicus [1] = assay: Anti-glycemic activity in fasted Sprague-Dawley ZDF rat assessed as increase in insulin secretion by measuring insulin level in plasma at 10 mg/kg administered 30 mins prior to glucose challenge measured after 140 mins by OGTT; assay type: functional; conditions: time 170 min, 2.833 h
# [2] = target: T1, Free fatty acid receptor 1 (Homo sapiens, UniProt O14842); assay: Agonist activity at human GPR40 receptor expressed in CHOK1 cells assessed as induction of IP1 accumulation at 10 uM relative to AM1638; assay type: functional, cell-based; conditions: CHO-K1, filed as agonist
# T1 sequence (O14842 whole entry): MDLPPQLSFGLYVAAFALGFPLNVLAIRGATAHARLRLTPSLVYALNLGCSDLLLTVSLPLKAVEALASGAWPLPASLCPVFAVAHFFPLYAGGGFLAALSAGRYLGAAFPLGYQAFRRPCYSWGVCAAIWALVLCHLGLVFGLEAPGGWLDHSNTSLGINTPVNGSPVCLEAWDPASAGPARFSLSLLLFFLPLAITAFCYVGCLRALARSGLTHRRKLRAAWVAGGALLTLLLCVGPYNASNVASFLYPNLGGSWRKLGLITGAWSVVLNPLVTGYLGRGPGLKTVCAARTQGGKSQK
# [3] = Drug metabolism in human assessed as (3S)-3-cyclopropyl-3-(3-((5-(5-fluoro-2-hydroxypyridin-4-yl)-6-isobutylpyrazin-2-yl)methoxy)phenyl)propanoic acid metabolite formation by MetID studies; assay type: ADME
# [4] = target: T2, Free fatty acid receptor 2 (Homo sapiens) (UniProt O15552); assay: Agonist activity at GPR43 (unknown origin)
# T2 sequence (whole entry): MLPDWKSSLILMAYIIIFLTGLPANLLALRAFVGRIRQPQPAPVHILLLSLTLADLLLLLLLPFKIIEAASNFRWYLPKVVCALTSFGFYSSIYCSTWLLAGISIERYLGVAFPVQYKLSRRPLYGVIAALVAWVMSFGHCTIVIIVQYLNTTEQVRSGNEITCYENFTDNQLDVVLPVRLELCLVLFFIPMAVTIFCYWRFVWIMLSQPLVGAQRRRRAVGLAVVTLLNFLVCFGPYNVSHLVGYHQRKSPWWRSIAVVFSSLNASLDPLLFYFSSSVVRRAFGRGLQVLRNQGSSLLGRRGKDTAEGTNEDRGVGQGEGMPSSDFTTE
# Rattus norvegicus [5] = assay: Anti-glycemic activity in fasted Sprague-Dawley ZDF rat assessed as reduction in post-prandial hyperglycemia by measuring AUC(0 to 2 hrs) for blood glucose at 10 mg/kg administered daily for 8 days and measured on day 8 by OGTT; assay type: functional; conditions: time 8 day
# [6] = Hepatic clearance in human; assay type: ADME
# Mus musculus [7] = assay: In vivo agonist activity at GPR40 in C57 mouse assessed as induction of GLP1 secretion at 100 mg/kg; assay type: functional, organism-based
# [8] = target: T1, Free fatty acid receptor 1; assay: Agonist activity at human GPR40 transfected in HEK293 cells assessed as increase in intracellular calcium level incubated for 1 hr by Fluo-8 dye based fluorescence analysis; assay type: functional, cell-based; conditions: hek293
# [9] = Cmax in cynomolgus monkey; assay type: ADME, Macaca fascicularis; conditions: in vivo
# [10] = Protein binding in cynomolgus monkey plasma; assay type: ADME, cell-free, Macaca fascicularis; conditions: read-out: PPB (converted)
# Mus musculus [11] = species on record: Mus musculus; assay: Anti-glycemic activity in C57 mouse assessed as reduction in blood glucose excursion measured for 120 mins by IPGTT; assay type: functional, organism-based
# [12] = Cmax in rat; assay type: ADME; conditions: in vivo
# [13] = Apparent permeability across basolateral to apical side in human Caco2 cells; assay type: ADME, cell-based; conditions: Caco-2
# [14] = Protein binding in dog plasma; assay type: ADME, cell-free, Canis lupus familiaris; conditions: read-out: PPB (converted)
# Rattus norvegicus [15] = assay: Anti-glycemic activity in fasted Sprague-Dawley ZDF rat assessed as increase in insulin secretion by measuring insulin level in plasma administered 30 mins prior to glucose challenge measured after 140 mins by OGTT; assay type: functional, organism-based; conditions: dose 1-10 mg/kg, time 170.0 min
# [16] = Half life in iv dosed cynomolgus monkey; assay type: ADME, organism-based, Macaca fascicularis; conditions: in vivo
# [17] = target: T3, Peroxisome proliferator-activated receptor delta (Homo sapiens) (UniProt Q03181); assay: Agonist activity at PPARbeta (unknown origin)
# T3 sequence (whole entry): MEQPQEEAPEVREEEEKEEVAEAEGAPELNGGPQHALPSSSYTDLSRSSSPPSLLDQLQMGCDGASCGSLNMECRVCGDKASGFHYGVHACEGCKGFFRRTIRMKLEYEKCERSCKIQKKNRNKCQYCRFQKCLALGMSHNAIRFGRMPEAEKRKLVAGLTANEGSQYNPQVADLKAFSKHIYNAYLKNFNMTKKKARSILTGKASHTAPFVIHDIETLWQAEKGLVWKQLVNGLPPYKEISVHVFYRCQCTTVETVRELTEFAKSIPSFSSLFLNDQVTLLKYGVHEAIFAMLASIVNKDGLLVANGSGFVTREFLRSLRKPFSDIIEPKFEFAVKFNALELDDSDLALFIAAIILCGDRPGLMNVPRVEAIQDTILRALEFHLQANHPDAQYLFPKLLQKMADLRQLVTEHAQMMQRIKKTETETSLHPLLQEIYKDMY
# [18] = Hepatic clearance in dog; assay type: ADME, Canis lupus familiaris; conditions: in vivo
# [19] = target: Free fatty acid receptor 1 (Rattus norvegicus) (UniProt Q8K3T4); assay: Agonist activity at rat GPR40 receptor expressed in CHOK1 cells assessed as induction of IP1 accumulation at 10 uM relative to TAK875; assay type: functional, cell-based; conditions: CHO-K1, filed as agonist
# Chain of Free fatty acid receptor 1 (Rattus norvegicus) (Q8K3T4 whole entry): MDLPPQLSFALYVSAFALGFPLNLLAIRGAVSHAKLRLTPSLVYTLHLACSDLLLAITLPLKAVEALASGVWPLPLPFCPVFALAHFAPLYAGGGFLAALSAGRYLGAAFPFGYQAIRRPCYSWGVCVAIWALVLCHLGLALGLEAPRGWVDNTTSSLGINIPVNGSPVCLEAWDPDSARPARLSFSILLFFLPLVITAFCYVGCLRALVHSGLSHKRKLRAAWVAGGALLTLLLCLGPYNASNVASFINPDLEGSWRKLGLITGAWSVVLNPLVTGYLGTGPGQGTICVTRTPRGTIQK
# Cytochrome P450 3A4 [20] = target: T4, Cytochrome P450 3A4 (Homo sapiens, UniProt P08684); assay: Inhibition of CYP3A4 (unknown origin) using testosterone as substrate; assay type: ADME
# T4 sequence (P08684 whole entry): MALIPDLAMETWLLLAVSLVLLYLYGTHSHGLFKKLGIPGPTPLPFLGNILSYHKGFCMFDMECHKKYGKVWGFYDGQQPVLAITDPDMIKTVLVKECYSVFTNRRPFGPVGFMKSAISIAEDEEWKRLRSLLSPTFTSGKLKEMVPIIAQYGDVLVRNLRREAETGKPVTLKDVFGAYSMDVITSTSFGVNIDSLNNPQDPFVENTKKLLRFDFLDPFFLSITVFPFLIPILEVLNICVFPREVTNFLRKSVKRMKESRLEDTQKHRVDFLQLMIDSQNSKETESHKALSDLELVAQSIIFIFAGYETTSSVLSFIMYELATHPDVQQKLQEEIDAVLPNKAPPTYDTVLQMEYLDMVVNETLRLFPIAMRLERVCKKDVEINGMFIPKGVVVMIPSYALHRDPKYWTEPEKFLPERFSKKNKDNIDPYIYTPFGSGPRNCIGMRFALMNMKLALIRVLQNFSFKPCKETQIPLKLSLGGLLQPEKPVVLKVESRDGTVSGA
# [21] = target: Free fatty acid receptor 1 (Rattus norvegicus) (UniProt Q8K3T4); assay: Agonist activity at GPR40 receptor in rat INS1(832/13) cells assessed as induction of IP1 accumulation at 10 uM relative to TAK875; assay type: functional, cell-based; conditions: INS-1 832/13, filed as agonist
# Cytochrome P450 3A4 [22] = target: T4, Cytochrome P450 3A4; assay: Inhibition of CYP3A4 (unknown origin) using midazolam as substrate; assay type: ADME
# [23] = Apparent permeability from basolateral to apical side in dog MDCK-MDR1 cells; assay type: ADME, cell-based, Canis lupus familiaris
# Mus musculus [24] = species on record: Mus musculus; assay: Anti-glycemic activity in GPR40 knockout mouse assessed as reduction in blood glucose excursion measured for 120 mins by IPGTT; assay type: functional, organism-based
# [25] = Protein binding in human plasma; assay type: ADME, cell-free; conditions: read-out: PPB (converted)
# [26] = Clearance in dog; assay type: ADME, Canis lupus familiaris; conditions: in vivo
# Rattus norvegicus [27] = assay: Anti-glycemic activity in fasted Sprague-Dawley ZDF rat assessed as increase in insulin secretion by measuring insulin level in plasma at 3 mg/kg administered 30 mins prior to glucose challenge measured after 140 mins by OGTT; assay type: functional; conditions: time 170 min, 2.833 h
# [28] = target: Free fatty acid receptor 1 (Rattus norvegicus) (UniProt Q8K3T4); assay: Agonist activity at rat GPR40 receptor expressed in CHOK1 cells assessed as induction of IP1 accumulation at 10 uM; assay type: functional, cell-based; conditions: CHO-K1, filed as agonist
# Cytochrome P450 2C19 = Cytochrome P450 2C19 (Homo sapiens, UniProt P33261); assay: Inhibition of CYP2C19 (unknown origin); assay type: ADME
# Chain of Cytochrome P450 2C19 (P33261 whole entry): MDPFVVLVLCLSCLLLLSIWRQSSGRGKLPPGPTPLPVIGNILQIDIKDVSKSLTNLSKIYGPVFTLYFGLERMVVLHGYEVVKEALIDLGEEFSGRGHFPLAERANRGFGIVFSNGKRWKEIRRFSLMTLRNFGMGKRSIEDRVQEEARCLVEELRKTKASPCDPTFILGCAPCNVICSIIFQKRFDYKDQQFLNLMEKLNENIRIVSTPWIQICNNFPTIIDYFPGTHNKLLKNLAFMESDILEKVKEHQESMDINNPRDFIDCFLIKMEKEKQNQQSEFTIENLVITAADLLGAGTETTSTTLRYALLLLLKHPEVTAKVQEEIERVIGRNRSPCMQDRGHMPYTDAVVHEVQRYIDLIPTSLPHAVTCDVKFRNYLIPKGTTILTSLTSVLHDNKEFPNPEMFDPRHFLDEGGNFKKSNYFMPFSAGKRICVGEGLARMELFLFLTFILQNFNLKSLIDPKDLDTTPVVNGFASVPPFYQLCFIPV
# [29] = target: Free fatty acid receptor 1 (Rattus norvegicus) (UniProt Q8K3T4); assay: Agonist activity at GPR40 receptor in rat INS1(832/13) cells assessed as induction of IP1 accumulation at 10 uM relative to AM1638; assay type: functional, cell-based; conditions: INS-1 832/13, filed as agonist
smiles,measurement,setting,value
COc1cc(-c2ncc(COc3cccc([C@@H](CC(=O)O)C4CC4)c3)nc2CC(C)C)c(F)cn1,Activity,Rattus norvegicus [1],16925 ng/mL
same,Activity,[2],121%
same,Drug metabolism,[3],Metabolite_Detected
same,Activity,[4],inactive
same,Activity,Rattus norvegicus [5],51024 ng/mL.hr
same,CLH,[6],8.9 mL/min/kg
same,Activity,Mus musculus [7],Active
same,pEC50,[8],8.70
same,Cmax,[9],8570 ng/mL
same,fraction unbound,[10],0.0009
same,Activity,Mus musculus [11],Active
same,Cmax,[12],9720 ng/mL
same,Papp B→A,[13],40 ×10⁻⁶ cm/s
same,fraction unbound,[14],0.0045
same,Activity,Rattus norvegicus [15],Dose-dependent effect
same,half-life,[16],11.2 h
same,Activity,[17],inactive
same,CLH,[18],13.5 mL/min/kg
same,Activity,[19],167%
same,pIC50,Cytochrome P450 3A4 [20],< 5.00
same,Activity,[21],208%
same,pIC50,Cytochrome P450 3A4 [22],5.10
same,Papp B→A,[23],82 ×10⁻⁶ cm/s
same,Activity,Mus musculus [24],inactive
same,fraction unbound,[25],0.0012
same,clearance,[26],8.36 mL/min/kg
same,Activity,Rattus norvegicus [27],5275 ng/mL
same,Activity,[28],572 nM
same,pIC50,Cytochrome P450 2C19,< 5.00
same,Activity,[29],104%
